Test results as given in patent publication US10829484B2, “Compounds and methods for kinase modulation, and indications therefor” (Plexxikon Inc., priority 2015, dated 2020).
Positions count from the first letter of the chain named.

Key:
[1] = target: T1, BaF3-FLT3-ITD-F691L (Homo sapiens, UniProt P36888, INS600HVDFREYEYD/F691L, cells depend on it); assay: CTB viability assay CS0047, BaF3-FLT3-ITD-F691L; format: cell-based, murine; settings: BaF3-FLT3-ITD-F691L cells, CellTiter Blue viability, 72 hours; read-out: Cell Assay: CS0047:BaF3-FLT3-ITD-F691L CTB:IC50
T1 sequence (P36888 with tags, fused parts or gaps INS600HVDFREYEYD/F691L): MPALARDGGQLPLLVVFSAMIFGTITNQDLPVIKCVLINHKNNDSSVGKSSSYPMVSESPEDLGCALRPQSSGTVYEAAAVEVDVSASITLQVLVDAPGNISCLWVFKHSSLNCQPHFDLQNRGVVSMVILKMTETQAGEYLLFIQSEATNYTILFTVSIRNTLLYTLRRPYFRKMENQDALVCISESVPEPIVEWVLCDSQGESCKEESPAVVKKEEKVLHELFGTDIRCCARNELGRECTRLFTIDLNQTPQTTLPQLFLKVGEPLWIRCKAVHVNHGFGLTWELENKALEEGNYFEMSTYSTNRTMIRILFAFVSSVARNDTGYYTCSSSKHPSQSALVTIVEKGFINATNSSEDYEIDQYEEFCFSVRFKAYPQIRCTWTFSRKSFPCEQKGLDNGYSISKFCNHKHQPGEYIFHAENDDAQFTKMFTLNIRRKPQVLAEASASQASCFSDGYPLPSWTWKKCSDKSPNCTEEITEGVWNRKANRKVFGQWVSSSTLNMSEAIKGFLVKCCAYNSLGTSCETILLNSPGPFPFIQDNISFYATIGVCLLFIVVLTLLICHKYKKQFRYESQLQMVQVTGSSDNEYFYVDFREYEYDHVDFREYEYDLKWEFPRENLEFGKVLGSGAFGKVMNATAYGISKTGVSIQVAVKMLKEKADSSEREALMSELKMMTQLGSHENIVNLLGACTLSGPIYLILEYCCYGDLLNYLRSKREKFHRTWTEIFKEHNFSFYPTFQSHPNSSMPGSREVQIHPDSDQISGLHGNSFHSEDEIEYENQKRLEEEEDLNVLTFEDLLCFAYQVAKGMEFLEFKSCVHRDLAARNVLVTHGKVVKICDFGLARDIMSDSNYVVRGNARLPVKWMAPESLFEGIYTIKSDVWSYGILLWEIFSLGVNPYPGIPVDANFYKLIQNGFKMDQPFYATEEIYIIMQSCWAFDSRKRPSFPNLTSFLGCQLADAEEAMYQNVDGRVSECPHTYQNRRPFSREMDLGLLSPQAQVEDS
Description: (§1) Gene constructs containing the human FLT3 sequences FLT3-ITD, FLT3-ITD-F691L, FLT3-ITD-D835V and FLT3-D835V were synthesized by reverse translation of the human protein sequences, with codons optimized for mammalian expression. Sequence of the internal tandem duplication (ITD) was based on the MV4-11 ITD sequence. Synthetic DNA constructs were cloned into the pMSCV puro retroviral vector (Clontech) and transfected into the EcoPack2-293 packaging cell line (Clontech) to generate retroviruses that contain the different FLT3 constructs. Viruses were transduced into the IL-3-dependent, murine […] cell line, Ba/F3, and selected for puromycin resistance and IL-3 independence. All cell lines were cloned by limiting dilution and clones were used for all subsequent cell assays. Overexpression of the FLT3 mutants in the Ba/F3 cells results in constitutive phosphorylation of the exogenous FLT3 protein, which is required for IL-3 independence.
(§2) Cell lines were serum starved overnight in media containing 0.5% FBS, plated at 15,000 cells/well in 96-well white-walled tissue culture plates, and 3-fold serial dilutions of test compounds of Formula I were added for 72 hours at 37° C. CellTiter Blue (CTB, Promega) was added and incubated for an additional 3 hours at 37° C. Fluorescence was read at 560 nm excitation, 590 nm emission. Wells with CTB+media only were used for background subtraction, and the fluorescence of compound-treated cells was normalized to the fluorescence of DMSO-treated cells. IC50s were determined using Igor Pro software. All compounds are assayed in duplicate cell plates.

[2] = target: T2, BaF3-FLT3-ITD-D835V (Homo sapiens, UniProt P36888, INS600HVDFREYEYD/D835V, cells depend on it); assay: CTB viability assay CS0048, BaF3-FLT3-ITD-D835V; format: cell-based, murine; settings: BaF3-FLT3-ITD-D835V cells, CellTiter Blue viability, 72 hours; read-out: Cell Assay: CS0048: BaF3-FLT3-ITD-D835V CTB:IC50
T2 sequence (P36888 with tags, fused parts or gaps INS600HVDFREYEYD/D835V): T1 sequence (P36888 with tags, fused parts or gaps INS600HVDFREYEYD/F691L) with L701F, D845V
Description: as §1, §2

Row | SMILES | GI50 [1] | GI50 [2]
1 | COc1cnccc1Nc1ncc(-c2ccc(CC(=O)Nc3cc(C4(C(F)(F)F)CC4)on3)c(F)c2)cn1 [P-105, 2-[2-fluoro-4-[2-[(3-methoxy-4-pyridyl)amino]pyrimidin-5-yl]phenyl]-N-[5-[1-(trifluoromethyl)cyclopropyl]isoxazol-3-yl]acetamide] | 10 to 50 nM | 50 to 100 nM
2 | Cc1c(Nc2ncc(-c3ccc(CC(=O)Nc4cc(C5(C(F)(F)F)CC5)on4)c(F)c3)cn2)ncn1C [P-075, 2-[4-[2-[(l,5-dimethylimidazol-4-yl)amino]pyrimidin-5-yl]-2-fluorophenyl]-N-[5-[1-(trifluoromethyl)cyclopropyl]isoxazol-3-yl]acetamide] | 10 to 50 nM | 10 to 50 nM
3 | Cc1nn(C)cc1Nc1ncc(-c2ccc(CC(=O)Nc3cc(C4(C(F)(F)F)CC4)on3)c(F)c2)cc1C#N [P-156, 2-[4-[5-cyano-6-[(1,3-dimethylpyrazol-4-yl)amino]-3-pyridyl]-2-fluorophenyl]-N-[5-[1-(trifluoromethyl)cyclopropyl]isoxazol-3-yl]acetamide] | 10 to 50 nM | 10 to 50 nM
4 | COc1nc(Nc2cn(C)nc2C)ncc1-c1ccc(CC(=O)Nc2cc(C3(C(F)(F)F)CC3)on2)c(F)c1 [P-117, 2-[4-[2-[(l,3-dimethylpyrazol-4-yl)amino]-4-methoxy-pyrimidin-5-yl]-2-fluorophenyl]-N-[5-[1-(trifluoromethyl)cyclopropyl]isoxazol-3-yl]acetamide] | 10 to 50 nM | 
5 | Cn1cc(Nc2ncc(-c3ccc(CC(=O)Nc4cc(C5(C(F)(F)F)CC5)on4)c(F)c3)c(C(F)(F)F)n2)cn1 [P-027, 2-[2-fluoro-4-[2-[(1-methylpyrazol-4-yl)amino]-4-(trifluoromethyl)pyrimidin-5-yl]phenyl]-N-[5-[1-(trifluoromethyl)cyclopropyl]isoxazol-3-yl]acetamide] | 50 to 100 nM | 10 to 50 nM
6 | COc1nn(C2CC2)cc1Nc1ncc(-c2ccc(CC(=O)Nc3cc(C4(C(F)(F)F)CC4)on3)c(F)c2)c(C)n1 [P-126, 2-[4-[2-[(1-cyclopropyl-3-methoxypyrazol-4-yl)amino]-4-methyl-pyrimidin-5-yl]-2-fluorophenyl]-N-[5-[1-(trifluoromethyl)cyclopropyl]isoxazol-3-yl]acetamide] | 10 to 50 nM | 10 to 50 nM
7 | CCc1nn(C2CCS(=O)(=O)C2)cc1Nc1ncc(-c2ccc(CC(=O)Nc3cc(C4(C(F)(F)F)CC4)on3)c(F)c2)cn1 (stereo not drawn) [P-012, 2-[4-[2-[[1-(1,1-dioxothiolan-3-yl)-3-ethylpyrazol-4-yl]amino]pyrimidin-5-yl]-2-fluorophenyl]-N-[5-[1-(trifluoromethyl)cyclopropyl]isoxazol-3-yl]acetamide] | 10 to 50 nM | 10 to 50 nM
8 | C=CC(=O)Nc1nn(C)cc1Nc1ncc(-c2ccc(CC(=O)Nc3cc(C4(C(F)(F)F)CC4)on3)c(F)c2)cn1 [P-125, N-[4-[[5-[3-fluoro-4-[2-oxo-2-[[5-[1-(trifluoromethyl)cyclopropyl]isoxazol-3-yl]amino]ethyl]phenyl]pyrimidin-2-yl]amino]-1-methyl-pyrazol-3-yl] prop-2-enamide] | 10 to 50 nM | 50 to 100 nM
9 | O=C(Cc1ccc(-c2cnc(Nc3cnccn3)nc2)cc1F)Nc1cc(C2(C(F)(F)F)CC2)on1 [P-086, 2-[2-fluoro-4-[2-(pyrazin-2-ylamino)pyrimidin-5-yl]phenyl]-N-[5-[1-(trifluoromethyl)cyclopropyl]isoxazol-3-yl]acetamide] | 10 to 50 nM | 10 to 50 nM
10 | Cc1nc(Nc2cnn(C3CC3)c2C)ncc1-c1ccc(CC(=O)Nc2cc(C3(C(F)(F)F)CC3)on2)c(F)c1 [P-129, 2-[4-[2-[(1-cyclopropyl-5-methylpyrazol-4-yl)amino]-4-methyl-pyrimidin-5-yl]-2-fluorophenyl]-N-[5-[1-(trifluoromethyl)cyclopropyl]isoxazol-3-yl]acetamide] | 10 to 50 nM | 10 to 50 nM
11 | O=C(Cc1ccc(-c2cnc(Nc3cnn(CCO)c3C3CC3)nc2)cc1F)Nc1cc(C2(C(F)(F)F)CC2)on1 [P-210, 2-[4-[2-[[5-cyclopropyl-1-(2-hydroxyethyl)pyrazol-4-yl]amino]pyrimidin-5-yl]-2-fluorophenyl]-N-[5-[1-(trifluoromethyl)cyclopropyl]isoxazol-3-yl]acetamide] | 10 to 50 nM | 10 to 50 nM
12 | Cc1nc(Nc2cn(C)cn2)ncc1-c1ccc(CC(=O)Nc2cc(C3(C(F)(F)F)CC3)on2)c(F)c1 [P-119, 2-[2-fluoro-4-[4-methyl-2-[(1-methylimidazol-4-yl)amino]pyrimidin-5-yl]phenyl]-N-[5-[1-(trifluoromethyl)cyclopropyl]isoxazol-3-yl]acetamide] | 10 to 50 nM | 50 to 100 nM
13 | COc1nn(C(F)F)cc1Nc1ncc(-c2ccc(CC(=O)Nc3cc(C4(C(F)(F)F)CC4)on3)c(F)c2)c(C)n1 [P-144, 2-[4-[2-[[1-(difluoromethyl)-3-methoxypyrazol-4-yl]amino]-4-methyl-pyrimidin-5-yl]-2-fluorophenyl]-N-[5-[1-(trifluoromethyl)cyclopropyl]isoxazol-3-yl]acetamide] | 10 to 50 nM | 50 to 100 nM
14 | COCCn1ncc(Nc2ncc(-c3ccc(CC(=O)Nc4cc(C5(C(F)(F)F)CC5)on4)c(F)c3)cn2)c1C1CC1 [P-204, 2-[4-[2-[[5-cyclopropyl-1-(2-methoxyethyl)pyrazol-4-yl]amino]pyrimidin-5-yl]-2-fluoro-phenyl]-N-[5-[1-(trifluoromethyl)cyclopropyl]isoxazol-3-yl]acetamide] | 10 to 50 nM | 10 to 50 nM
